The source of these data is patent EP0103895A2, “Novel hydroxylamine derivatives, production and use thereof” (MEIJI SEIKA KABUSHIKI KAISHA, priority 1982, dated 1984).

The test system of assay [1] is Liver fluke; Fasciola hepatica (F. hepatica). The experiment in a line: Test of anthelmintic effect against rat infected experimentally with liver fluke (Test Examples A11, B11, C11, D11). The assay is classed as in vivo. Further details: key to Presence or absence of fluke egg in fecal matter On 21st day after the last administration: +: indicates detection of fluke egg; -: indicates no detection. The following applies: for Condition of fluke body: autopsy, liver, "Denatured" = fluke body is alive but a part of fluke body has changed. The source says: Twenty-eight (28) rats were employed in fourteen groups each of two rats, each rat being infected with 5 metacercariae of Liver fluke; Fasciola he^patica (F.. hepatica) and confirmed to have worm eggs on the 75th day after infection according to fecal matter testing.
Judgement of the effect was made by the presence or absence of the worm gees in the fecal matter on the 21st day after the last administration and by examination according to autopsis as to whether the worm bodies were dead or alive in the liver.
The same as that in Test Example All, but eight (8) rats were employed by grouping them into groups each of two rats, each rat being infected with 5 metacercariae of liver fluke and confirmed to have fluke eggs on the 75th day after infection according to fecal matter testing.
The compounds provided for the tests were Compound Nos. Bl, B8 and B19.
The same as that in Test Example All, but six (6) rats were employed by grouping them into groups each of two rats, each rat being infected with 5 metacercariae of Fasciola hepatica and confirmed to have worm eggs on the 75th day after infection according to fecal matter testing.
The compounds provided for the tests were Compound Nos. C2 and C6.
The same as that in Test Example All, but the compounds provided for tests were Compound Nos. D14, D15 and D16.

For assay [2], the system named is fowl roundworm (As. galli). The experiment in a line: Anthelmintic test in chickens artificially infected with fowl roundworm, compound added to feed, E.P.G. and worm count up to 21st day (Test Examples A2, B2, C2, D2). The assay is classed as in vivo, Ascaridia galli. Conditions: for inhibition in vivo at 10 ppm: 10 ppm added to feed.
Assay [3] has as its system fowl roundworm (Ascaridia galli). The experiment in a line: Anthelmintic test in chickens artificially infected with fowl roundworm, single oral dose in gelatin capsule, worm bodies counted within 48 hours (Test Examples A1, B1, C1, D1). The assay is classed as in vivo. Conditions: Ascaridia galli, po, 48 h, read-out: Anthelmintic effect after 48 hours; for inhibition in vivo at 15 mg/kg: 15 mg/Kg oral in gelatin capsule. How it is done: Chickens infected artificially with fowl roundworm (Ascaridia galli) were employed in groups each consisting of three chickens. Fecal matter testing was conducted before administration of medicine to confirm infection with the worm. The quantity of the compound provided for testing was 10 mg and 20 mg per Kg of body weight, which was orally administered each in a gelatin capsule to the chicken. The number of worm bodies discharged within 48 hours after administration of medicine was counted, the chicken was killed after 48 hours and the number of worm bodies remaining in the enteron was counted to determine the anthelmintic percentage, wherefrom the antihelmintic effect was judged.
The same as that in Test Example Al.
The same as that in Test Example Al except that the compound provided for testing was in quantities of 30 mg and 50 mg per Kg of body weight, which were orally administered to the chickens in gelatin capsules.
The same as that in Test Example Al, except that the compounds provided for testing were used in quantities of 15 mg and 30 mg per Kg of body weight, which were orally administered each in a gelatin capsule to the chicken.

Assay [4] has as its system swine Oesophagostomum (Oesophagostomum dentatum). The experiment in a line: Test of anthelmintic effect against swine Oesophagostomum in naturally infected pigs, E.P.G. on 7th day (Test Examples A8, B8, C8, D8). The assay is classed as in vivo. The following applies: for anthelmintic effect: one administration of 20 mg/Kg. How it is done: Six pigs infected with swine Oesophagostomum (naturally infected pigs) were employed by grouping them into groups each of two pigs.
As a control, only gelatin capsules were administered orally to the two pigs.
Before administration and on the 7th day after administration, fecal matter testing was conducted to calculate the E.P.G., and the anthelmintic effect was judged by the changing of the E.P.G. to negative.

Assay [5] deals with Diphyllobothrium erinacei. The experiment in a line: Test of anthelmintic effect against Diphyllobothrium erinacei (tapeworm) in experimentally infected cats (Test Examples A5, B5, C5, D5). Conditions: for anthelmintic effect: cats, 5 continuous administrations of 50 mg/Kg.
Where [6] appears, read: rats, 50 mg/Kg x 5 orally, one value per rat.
Where [7] appears, read: Ascaridia galli, po, 504 h, chickens, worm count on 21st day, one value per chicken, read-out: Anthelmintic effect.
The mark [8] stands for this setting: Ascaridia galli, po, 504 h, chickens, 50 ppm added to feed, worm count on 21st day, one value per chicken, read-out: Anthelmintic effect.
Setting [9] is: chicken, 30 mg/Kg oral in gelatin capsule, chickens No.1-3.
The mark [10] stands for this setting: Ascaridia galli, feed or water, 504 h, chicken, 25 ppm in feed, read-out: Anthelmintic effect.
Where [11] appears, read: Ascaridia galli, feed or water, 504 h, chicken, 50 ppm in feed, read-out: Anthelmintic effect.
Setting [12] is: pig, Oesophagostomum dentatum, 20 mg/Kg, one administration.
[13] abbreviates: pig, Oesophagostomum dentatum, before 20 mg/Kg (baseline).

Values joined by “and” are separate entries in the source; they are usually repeats but may differ in a detail not shown here. Equal entries are not always repeated. Where two headings read alike, the source gives them in different places.

As for `C#CCN(OCC=C)C(=O)CCCC` [Compound A7, N-propargyl-N-valeroyl-O-allylhydroxylamine], in assay [1] (setting [6]), the “Condition of fluke body” value is “dead” and the “Presence or absence of fluke egg in fecal matter On 21st day after the last administration” value (“Presence or absence of fluke egg” for short) is given as “-”. The inhibition in vivo at 10 ppm in assay [2] (setting [7]) lay within 80 to 90%. The inhibition in vivo at 50 ppm in assay [2] (setting [8]) is 100%.

`C#CCN(OCC=C)C(=O)CCCCCCC/C=C\CCCCCCCC` [Compound A8, N-propargyl-N-oleoyl-O-allylhydroxylamine]: in assay [1] (setting [6]), the “Condition of fluke body” value is on record as “dead” and the “Presence or absence of fluke egg” value was “-”. In addition, in assay [2] (setting [7]), the inhibition in vivo at 10 ppm turned out to be 100%. In assay [2] (setting [8]), the inhibition in vivo at 50 ppm amounted to 100%.

As to `C#CCN(OCC=C)C(=O)CCCCCCCCCCCCCCCCC` [Compound A9, N-propargyl-N-stearoyl-N-allylhydroxylamine], in assay [1] (setting [6]), the “Condition of fluke body” value is listed as “dead” and the “Presence or absence of fluke egg” value is “-”. Besides, in assay [2] (setting [7]), the inhibition in vivo at 10 ppm worked out at 100%. In addition, in assay [2] (setting [8]), the inhibition in vivo at 50 ppm worked out at 100%.

As to `C#CCN(OCC=C)C(=O)c1ccccc1` [Compound A11, N-propargyl-N-benzoyl-O-allylhydroxylamine], in assay [1] (setting [6]), the “Condition of fluke body” value is recorded as “dead” and the “Presence or absence of fluke egg” value is on record as “-”. The inhibition in vivo at 10 ppm in assay [2] (setting [7]) lay in the range of 80 to 90%. Besides, the inhibition in vivo at 50 ppm in assay [2] (setting [8]) stood at 100%.

Regarding `C#CCN(C=O)OCC=C` [Compound A13, N-propargyl-N-formyl-0-allylhydroxylamine], the inhibition in vivo at 10 mg/kg in assay [3] (chickens, 10 mg/Kg orally in gelatin capsule, one value per chicken (No.1-3)) amounted to 100%. Also, the inhibition in vivo at 20 mg/kg in assay [3] (chickens, 20 mg/Kg orally in gelatin capsule, one value per chicken (No.1-3)) was found to be 100%. In addition, the “Condition of fluke body” value in assay [1] (rats, 50 mg/Kg x 5 orally, one value per rat, 50 mg/kg) is “denatured and dead”. Besides, in assay [1] (setting [6]), the “Presence or absence of fluke egg” value is recorded as “-”. In assay [2] (setting [7]), the inhibition in vivo at 10 ppm lay within 80 to 90%. The inhibition in vivo at 50 ppm in assay [2] (setting [8]) stood at 100%.

Take `C=CCN(OCCCCC)C(C)=O` [Compound B20]: in assay [3] (chickens, 30 mg/Kg orally in gelatin capsule, one value per chicken (No.1-3)), the inhibition in vivo at 30 mg/kg is 100%. Besides, in assay [3] (chickens, 50 mg/Kg orally in gelatin capsule, one value per chicken (No.1-3)), the inhibition in vivo at 50 mg/kg came to 100%. In assay [4] (pigs, 20 mg/Kg orally once, baseline, one value per pig, 20 mg/kg), the “Change of E.P.G. Before administration” value was 1,000 E.P.G. and 1,600 E.P.G. The “Change of E.P.G. 7th day” value in assay [4] (pigs, 20 mg/Kg orally once, one value per pig) was 0 E.P.G. In addition, in assay [4] (pigs), the “anthelmintic effect” value was “marked anthelmintic effect”. Moreover, the inhibition in vivo at 20 ppm in assay [2] (Ascaridia galli, po, 504 h, chickens, 20 ppm added to feed, worm count on 21st day, one value per chicken, read-out: Anthelmintic effect) was determined as 100%. Moreover, the inhibition in vivo at 50 ppm in assay [2] (setting [8]) was found to be 100%.

With `C=CCON(CC=C)C(=O)c1ccc(F)cc1` [Compound C7], the inhibition in vivo at 30 mg/kg in assay [3] (setting [9]) came out at 100%. In assay [3] (chicken, 50 mg/Kg oral in gelatin capsule, chickens No.1-3), the inhibition in vivo at 50 mg/kg came out at 100%. Besides, in assay [5] (cat, 50 mg/Kg x 5, oral in gelatin capsule), the “Number of worm bodies remaining in enteron” value stood at 0. For the same compound, the “Worm egg detection on 10th day after administration” value in assay [5] (cat, 50 mg/Kg x 5, oral in gelatin capsule, once per day for 5 days) was “-”. Also, the “anthelmintic effect” value in assay [5] is “marked anthelmintic effects”. Also, in assay [2] (setting [10]), the inhibition in vivo at 25 ppm is 100%. In addition, the inhibition in vivo at 50 ppm in assay [2] (setting [11]) stood at 100%. Further, the “Change of E.P.G. 21st day” value in assay [2] (chicken, 25 ppm in feed) is on record as 0; in assay [2] (chicken, 50 ppm in feed), 0.

Regarding `C=CCNOCC(C)C` [Compound D3], in assay [3] (setting [9]), the inhibition in vivo at 30 mg/kg is 100%. In assay [4] (setting [12]), the “Change of E.P.G. 7th day” value was determined as 0. The “Change of E.P.G. Before administration” value in assay [4] (setting [13]) is 2,200 and 1,800. In assay [4] (pigs), the “anthelmintic effect” value is on record as “marked anthelmintic effect”. In addition, the inhibition in vivo at 25 ppm in assay [2] (setting [10]) lay in the range of 80 to 90%. In addition, in assay [2] (setting [11]), the inhibition in vivo at 50 ppm was determined as 100%.

Consider `C=CCNOC` [Compound D9], for which the inhibition in vivo at 15 mg/kg in assay [3] (chicken, chickens No.1-3) lay in the range of 50 to 79%. In assay [3] (setting [9]), the inhibition in vivo at 30 mg/kg amounted to 100%. The “Number of worms remaining in enteron” value in assay [5] (cat, 50 mg/Kg x 5) is 0. Besides, the “anthelmintic effect” value in assay [5] is recorded as “marked anthelmintic effects”.

Take `C#CCNOCCCC` [Compound D12]: the inhibition in vivo at 30 mg/kg in assay [3] (setting [9]) amounted to 100%. For the same compound, the “Change of E.P.G. 7th day” value in assay [4] (setting [12]) stood at 0. Moreover, the “Change of E.P.G. Before administration” value in assay [4] (setting [13]) is 1,600 and 2,100. The “anthelmintic effect” value in assay [4] (pigs) is given as “marked anthelmintic effect”.

As for `C#CCNOCC#C` [Compound D15], the inhibition in vivo at 15 mg/kg in assay [3] (chicken, chickens No.1-3) was 100%. The inhibition in vivo at 30 mg/kg in assay [3] (setting [9]) was 100%. Also, in assay [1] (rat, 50 mg/Kg x 5), the “Condition of fluke bodies” value is listed as “dead” and the “Presence or absence of fluke egg” value is given as “-”. Further, the “anthelmintic effect” value in assay [1] (rats, five administrations in a dose of 50 mg/Kg each) is on record as “marked anthelmintic effect”. Further, the inhibition in vivo at 25 ppm in assay [2] (setting [10]) is 80 to 90%. In addition, the inhibition in vivo at 50 ppm in assay [2] (setting [11]) is 100%.
